Test results as given in US4101647A, “Oral dosage form for X-ray contrast media containing a pharmaceutically acceptable base and method of use thereof” (Schering Aktiengesellschaft, priority 1975, dated 1978).

How the values were obtained:
[1] = Blood levels of contrast medium of four patient groups after oral administration (3 g, microcrystal suspension) with various additional treatments; details: sodium bicarbonate given orally with the contrast agent
Experimental: (§1) Suspension with Various Additional Treatments
(§2) III = 10 mg. of Metoclopramide i.v.; and
IV = g. of Sodium Bicarbonate)

[2] = human, in vivo
Experimental: as §1, §2
IV = g. of Sodium Bicarbonate)

[3] = clinical; details: human, in vivo, po
Experimental: as §1, §2
IV = g. of Sodium Bicarbonate)

resorption half life [2] [h] | blood level within 30 minutes after ingestion, on the average, as % of the maximum value ([2]; 30 min) [%] | Cmax (% of dose in total blood volume) ([2]; po) | tmax (time of maximum blood level) ([2]; po) [h] | half-life [3] [h] | Cmax ([3]; Cmax (maximum concentration in blood)) [µg/mL] | Tmax ([3]; time after administration at which the maximum blood level is attained) [h] | Structure (SMILES) | effect of simultaneous oral administration on resorption of the contrast agent [1]
– | – | – | – | – | – | – | O=C(O)O [sodium bicarbonate] | accelerates resorption of the contrast agent in a statistically significant manner
0.3 ± 0.1 | 80 | 23 ± 8 % of Dose in Bl. Vol. | 2.2 ± 0.4 | 2.3 ± 1.4 | 114 ± 45 | ≤ 0.9 | CCN(C(=O)CCC(=O)O)c1c(I)cc(I)c(NC)c1I [succinic acid mono-2,4,6-triiodo-3-methylamino-N-ethylanilide] | –
